≈ marks a conversion by molar mass, not a printed value. Read-outs that look alike come from different tables or passages of the source.
Experiments:
[1] = system: E. coli Af31; experiment: MIC, broth microdilution (EUCAST); assay type: cell-based, Escherichia coli
Method: (§1) The MICs of Pep16 and colistin were determined by the broth microdilution method in accordance with the EUCAST guidelines (www.eucast.org, accessed on 2 September 2022). In order to investigate for the presence of a potential inoculum effect in vitro, MICs were performed with various inoculum sizes, increasing from 10^5 to 10^7 CFU/mL. To explore MIC variations in the presence of albumin, MICs were also determined in Mueller–Hinton broth (MHB) supplemented with 4% human albumin.

[2] = system: E. coli B119; experiment: MIC, broth microdilution (EUCAST); assay type: cell-based, Escherichia coli; conditions: B119, inoculum 10^5 CFU/mL
Method: as §1

[3] = system: E. coli CFT073-pTOPO-COLR; experiment: MIC, broth microdilution (EUCAST); assay type: cell-based, Escherichia coli
Method: as §1

[4] = system: E. coli CFT073-pTOPO; experiment: MIC, broth microdilution (EUCAST); assay type: cell-based, Escherichia coli; conditions: at least three experiments
Method: as §1

[5] = system: E. coli CFT073-pTOPO; assay type: in vivo, mice; conditions: peritonitis due to CFT073-pTOPO; for mean bacterial counts in the spleen / mice that died before the planned time of the sacrifice: single s.c. dose 2 h after inoculation: Pep16 10 mg/kg, colistin 10 mg/kg, cefotaxime 100 mg/kg, or colistin 10 + Pep16 10 mg/kg; for mice that died before the planned time of the sacrifice: planned sacrifice 3, 6, 12 h
Method: (§2) Animal experiments were performed in accordance with the prevailing regulations and ethical requirements of the Direction of Veterinary Services of Paris. The experimental protocol was approved by the French Ministry of Research and by the Ethics Committee for Animal Experiments (No. APAFIS 22330-2019092415325730). Animals were housed in regulation cages and given free access to food and water. Swiss ICR-strain female mice weighing 25 to 30 g were used.
We used the lethal murine intraperitoneal infection model previously developed by our group. Mice were inoculated by the intraperitoneal route with 250 μL of a bacterial suspension in porcine mucin 10% (Sigma–Aldrich), corresponding to a final inoculum of approximately 2.5 × 10^7 CFU/mL. The strains tested were CFT073-pTOPO and CFT073-pTOPO-COLR. Two hours after inoculation, at least three mice per strain were sacrificed to determine the pre-therapeutic bacterial loads, referred to as start-of-treatment controls, since all untreated mice died within 12 h (data not shown), preventing the use of end-of-treatment controls. Each treatment group was composed of 9 mice, which were administered a single dose of antibiotic (or of a combination of antibiotics) subcutaneously 2 h after inoculation. The treatment groups were Pep16 10 mg/kg, colistin 10 mg/kg, cefotaxime 100 mg/kg, and Pep16 10 mg/kg + colistin 10 mg/kg. Doses of cefotaxime and colistin were chosen based on previous pharmacokinetic analysis, while the dose of Pep16 was chosen based on the present survival study and pharmacokinetic analysis. In each treatment group, mice were sacrificed by 200 µL of pentobarbital 40% (Euthasol VetVR, Dechra Veterinary Products, Montigny-Le-Bretonneux, France) in a sequential way: 3 mice 3 h after treatment, 3 mice 6 h after treatment, and 3 mice 12 h after treatment. Immediately after death, the spleens were extracted and homogenized. Samples were plated on LB agar. To detect resistant mutants after treatment with colistin, samples were also plated on LB agar containing colistin at 4× MIC. The MICs of colistin-resistant mutants were determined (see above). Colony counts were then determined after 48 h of culture. Endpoints were spontaneous death (before the planned time of the sacrifice), bacterial counts in the spleen, and the emergence of colistin-resistant mutants. The assessment criteria of the murine model were: (i) mortality rate; (ii) bacterial counts in peritoneal fluid (PF) and the spleen; and (iii) the selection of colistin-resistant mutants after 24 h of treatment.

[6] = system: E. coli CFT073-pTOPO; experiment: Flow cytometry study of membrane permeability (Live/Dead BacLight, SYTO9/PI); assay type: cell-based, Escherichia coli; conditions: 30 min exposure, 10^6 CFU/mL; colistin 0.25 mg/L (0.25x MIC), Pep16 16 mg/L (0.25x MIC), alone or combined; positive control 90% ethanol; D/M = Q3/(Q1+Q2+Q3)
Method: Flow cytometry was used to investigate membrane permeability after exposure to antibiotics. Experiments were executed on a Fortessa X-20 flow cytometer (Becton Dickinson, Le Pont de Claix, France) equipped with a 488 nm laser. Exponentially growing E. coli CFT073-pTOPO cells at 10^6 CFU/mL were obtained and incubated with colistin and/or Pep16 at 0.25× MIC during 30 min. […] The samples were centrifuged and reconstituted in phosphate-buffered saline twice. Cells were then stained by using a Live/Dead BacLight kit (Molecular Probes, Invitrogen, Cergy-Pontoise, France) as previously shown [20]. The kit consists of two fluorescent intercalating agents, propidium iodide (PI) and SYTO9, which both stain nucleic acids. The green-fluorescing SYTO9 is able to enter all cells when used alone, whereas the red-fluorescing PI only enters cells with damaged cytoplasmic membranes. The appropriate mixture of the SYTO9 and PI stains enables differentiation between bacteria with intact cytoplasmic membranes and dead bacteria with permeabilized cytoplasmic membranes. Optical filters were set up such that red fluorescence was measured at 635 nm and green fluorescence was measured at 500 nm. The proportion of dead cells (colored in red)/marked cells (colored in red and/or green) was retrieved for each condition. A minimum of 50,000 events per condition were recorded.

[7] = system: E. coli CFT073-pTOPO-COLR; experiment: Murine peritoneal infection model; assay type: in vivo, mice; conditions: peritonitis due to CFT073-pTOPO-COLR; single s.c. dose: Pep16 10 mg/kg, colistin 10 mg/kg, or colistin 10 + Pep16 10 mg/kg
Method: as §2
We used the lethal murine intraperitoneal infection model previously developed by our group. Mice were inoculated by the intraperitoneal route with 250 μL of a bacterial suspension in porcine mucin 10% (Sigma–Aldrich), corresponding to a final inoculum of approximately 2.5 × 10^7 CFU/mL. The strains tested were CFT073-pTOPO and CFT073-pTOPO-COLR. Two hours after inoculation, at least three mice per strain were sacrificed to determine the pre-therapeutic bacterial loads, referred to as start-of-treatment controls, since all untreated mice died within 12 h (data not shown), preventing the use of end-of-treatment controls. Each treatment group was composed of 9 mice, which were administered a single dose of antibiotic (or of a combination of antibiotics) subcutaneously 2 h after inoculation. […] The MICs of colistin-resistant mutants were determined (see above). Colony counts were then determined after 48 h of culture. […]

[8] = system: colistin-resistant mutants of E. coli CFT073-pTOPO and B119; experiment: MIC for colistin-resistant mutants selected in time-kill curves; assay type: cell-based, Escherichia coli; conditions: mutants after 24 h of exposure to colistin alone in time-kill curves
Method: as §1
Time–kill curves were performed with Pep16 (4–128 mg/L) and colistin (0.5–8 mg/L) alone or in combination. Exponentially growing E. coli cells were incubated in 10 mL of Mueller–Hinton broth to obtain 10^6 CFU/mL with Pep16 and/or colistin. Viable counts were enumerated by plating 100 μL of appropriate culture dilutions on to lysogeny broth (LB) agar plates after 0, 1, 3, 6, and 24 h of incubation at 37 °C and expressed in log10 CFU/mL. The lower limit of detection was 1 log10 CFU/mL. A bactericidal effect is defined as a 3 log10 decrease in CFU counts compared with the initial inoculum. A synergistic effect is defined as a 2 log10 decrease in CFU counts between the combination and its most-active constituent after 24 h. […] The MICs of colistin-resistant mutants after 24 h of colistin monotherapy were determined (see above). […]

| Compound | MIC ([1]; Escherichia coli, AF31) [µg/mL] | MIC ([2]; Escherichia coli, read-out: MIC) [µg/mL] | MIC ([3]; Escherichia coli) [µg/mL] | MIC ([4]; Escherichia coli, CFT073PTOPO, inoculum 10^5 CFU/mL) [µg/mL] | MIC ([4]; Escherichia coli, CFT073PTOPO, inoculum 10^6 CFU/mL) [µg/mL] | MIC ([4]; Escherichia coli, CFT073PTOPO, inoculum 10^7 CFU/mL) [µg/mL] | mean bacterial counts in the spleen [5] | mice that died before the planned time of the sacrifice [5] | MIC ([1]; Af31 (mcr-1 plasmid), inoculum 10^5 CFU/mL) [µg/mL] | MIC [2] [µg/mL] | MIC ([3]; CFT073-pTOPO-COLR, inoculum 10^5 CFU/mL) [µg/mL] | MIC ([4]; inoculum 10^5 CFU/mL) [µg/mL] | MIC ([4]; inoculum 10^6 CFU/mL) [µg/mL] | MIC ([4]; inoculum 10^7 CFU/mL) [µg/mL] | percentage of dead cells/marked cells (D/M) [6] [%] | proportion of mice with colistin-resistant mutants ([5]; colistin 10 mg/kg alone or with Pep16 10 mg/kg) | mean counts of colistin-resistant mutants in the spleens ([5]; colistin 10 mg/kg alone or with Pep16 10 mg/kg, LB agar with colistin at 4x MIC) | mean bacterial counts in the spleen [7] | mice that died before the planned time of the sacrifice [7] | MIC of colistin-resistant mutants [8] [µg/mL] |
| --- | --- | --- | --- | --- | --- | --- | --- | --- | --- | --- | --- | --- | --- | --- | --- | --- | --- | --- | --- | --- |
| CO/N=C(\C(=O)N[C@@H]1C(=O)N2C(C(=O)O)=C(COC(C)=O)CS[C@H]12)c1csc(N)n1 [Cefotaxime, cefotaxime] | 0.06 (≈ 0.132 µM) | 0.06 (≈ 0.132 µM) | 0.06 (≈ 0.132 µM) | 0.06 (≈ 0.132 µM) | 1 (≈ 2.2 µM) | 8 (≈ 17.6 µM) | 3.6 × 10^6 CFU/g | 0/9 | – | – | – | – | – | – | – | – | – | – | – | – |
| colistin sulfate | – | – | – | – | – | – | 2.7 × 10^8 CFU/g | 1/9 | 8 | 1 | 16 | 1 | 2 | 32 | 60 | 9/9 | 1.6 × 10^3 CFU/g | 4.0 × 10^8 CFU/g | 5/9 | 8 to 16 |

Reference: article PMC9854584, “Synergistic Activity of Pep16, a Promising New Antibacterial Pseudopeptide against Multidrug-Resistant Organisms, in Combination with Colistin against Multidrug-Resistant Escherichia coli, In Vitro and in a Murine Peritonitis Model” (Antibiotics, 2023)
